Key:
vessels = test: Vessel number in tibialis anterior of treated mice (Flk1GFP/+ or CD31 immunostaining); format: in vivo, mouse
Method: Immunostaining was performed on cryosections fixed with 4% paraformaldehyde (PFA EMS#15710) in cold PBS, permeabilized with 0.5% Triton X-100 20 min at room temperature, washed, and blocked with 10% BSA for 30 min. Sections were incubated with primary antibodies overnight at 4° C. (see Table 1 below) and with Alexa-conjugated secondary antibodies 1/250 and Hoechst for 45 minutes. Sections were then analysed using an automated axioscan (Zeiss) or inverted Observer.Z1 Apotome (Zeiss). For apoptosis assessment, cells were collected in 2% serum, spun on polyD-lysine (Sigma-Aldrich#P6407), and immediately fixed with PFA 4%.
Throughout the study, focus was made on the tibialis anterior (TA). In skeletal muscle, SC are central for muscle repair. […] SC are localized close to capillaries and angiogenesis is known to be crucial for muscle repair SC survival with cellular interplays between vessel cells and SC. The number of vessels was therefore quantified. In control Flk1^GFP/+ mouse (placebo), the number of vessels was of 870±213.1 vessels per mm^2 and increased after 3 weeks of I.P treatment (1103±110.2 vessels per mm^2), and even more after 6 weeks (1384±175.3 vessels per mm^2, p=0.008) (FIG. 2e). Neovessels presented with normal histological appearance associating a basal lamina and a permeable lumen sometimes containing red blood cells. […] 841±137 CD31+ cells per mm^2 were counted in the placebo-treated mice vs. 2260±361 CD31+ cells per mm^2 in the fluoxetine-treated mice, p=0.008 (FIG. 2t-v), confirming the previous observation.
In order to investigate the effect of vortioxetine on vessels number, intra peritoneal (I.P) administration of 20 mg/kg of vortioxetine was performed for either 12 days, 3 or 6 weeks to C57Bl/6 mice (FIG. 10a). The number of CD31+ cells was counted by immunostaining. The number of vessels in the placebo is (863.5±115.6 vessels per mm^2) and increases after 12 days of I.P treatment (2274±926 vessels per mm^2, p=0.03), and even more after 3 weeks (2847±705 vessels per mm^2, p=0.02) (FIG. 10b). However, there was no statistically significant differences between 12 days and 3 weeks of treatment (p=0.49). Neovessels display a normal histological appearance associated with a basal lamina and a permeable lumen sometimes containing red blood cells. The daily administration of vortioxetine IP might cause unwanted peritoneal inflammation that could interfere with angiogenesis since inflammation and neovascularization are intertwined in some models. Vortioxetine was therefore administered per os (P.O) for 12 days: a similar increase in the number of vessels was observed (2451±595 vessels per mm^2 p=0.028, FIG. 10c). To further confirm those results, vortioxetine will be administered to Flk1^GFP/+ mice P.O and I.P for 12 days, and an ex vivo Matrigel angiogenesis assay and plasma from vortioxetine treated mice will be used on HUVEC (endothelial cells).

satellite cells [1] = test: Satellite cells in vitro in plasma of treated mice (live videomicroscopy, immunostaining); format: cell-based, mouse; details: for Reserve cells (quiescent Pax7 positive cells) 14 days post-plating: plasma from fluoxetine-treated animals
Method: Muscle dissection was done as previously described in cold DMEM. Muscles were then chopped with small scissors and put in a 50 ml Falcon tube with collagenase 0.1% and trypsin 0.25% at 37° C. with gentle agitation. After 20 minutes, the supernatant was collected in 20% serum placed on ice, and the collagenase/trypsin solution was added to continue the digestion. Once muscle was completely digested, the solution was filtrated using 40 μm cell strainers. Satellite cells were cultured in 1:1 DMEM-Glutamax (Gibco#41965-039):MCDB201 (Sigma#M6770) containing 20% serum FBS (Biowest S1860). Medium was filtered using 0.22 μm filters. Cells were plated on Matrigel coating (BD Biosciences#354234) and kept in an incubator (37° C., 5% CO2). […] The thus-obtained supernatant replaced FBS in the culture medium; the rest of the medium was unchanged.
Cells isolated by FACS were plated overnight on a 24-well glass bottom plate (P24G-0-10-F; MatTek) coated with matrigel (BD Biosciences#354234) and placed in an incubator in pre-equilibrated medium (1:1 DMEM Glutamax: MCDB [Sigma-Aldrich], 20% FCS (Biowest S1860). The plate was then incubated at 37° C., 5% CO2 (Zeiss, Pecon). A Zeiss Observer.Z1 connected with a LCI PInN 10×/0.8 W phaseII objective and AxioCam camera piloted with AxioVision was used. Cells were filmed for up to 5 days, and images were taken every 30 min with brightfield and phase filters and MozaiX 3×3 (Zeiss). Raw data were transformed and presented as a video.
Those results were confirmed in vitro (FIG. 7a). […] This difference was lost when SC were plated with GR127935 (p=0.4) (FIG. 7e). The faster exit of quiescence and higher division rates were also lost when adding GR127935 in vitro (FIGS. 7f,g). The effects of the plasma from fluoxetine-treated animals were persistent when adding MDL100907 (FIGS. 7b-g).

satellite cells [2] = test: Satellite cell (SC) number in tibialis anterior of treated mice (histological count or FACS cytometry); format: in vivo, mouse; details: for Number of SC: Tg:Pax7nGFP mice
[3] = 20% plasma from fluoxetine treated C57Bl/6 mice, live-videomicroscopy

Structure (SMILES)	Number of vessels (vessels; GR127935 in osmotic pump together with fluoxetine P.O 6 weeks, Flk1GFP/+ mice) [vessels per mm^2]	Pax7 positive cells 4 days post-plating (satellite cells [1]; plasma from fluoxetine treated animals incubated with GR127935) [%]	Reserve cells (quiescent Pax7 positive cells) 14 days post-plating (satellite cells [1]; GR127935 added in vitro) [%]	MyoG expression difference when plated with GR127935 (satellite cells [1]; plasma from fluoxetine-treated mice plus GR127935)	Faster exit of quiescence and higher division rates when adding GR127935 (satellite cells [1]; plasma from fluoxetine-treated mice plus GR127935 in vitro)	Number of SC (satellite cells [2]; GR127935 in osmotic pump together with fluoxetine P.O 6 weeks) [SC per TA]	Number of vessels (vessels; fluoxetine 18 mg/kg I.P, 3 weeks, Flk1GFP/+ mouse) [vessels per mm^2]	Number of vessels (vessels; fluoxetine 18 mg/kg I.P, 6 weeks, Flk1GFP/+ mouse) [vessels per mm^2]	Number of vessels (vessels; fluoxetine P.O 6 weeks and PBS in osmotic pump, Flk1GFP/+ mice) [vessels per mm^2]	CD31+ cells on cryo-sectioned TA (vessels; fluoxetine P.O, 6 weeks, C57Bl/6 mice) [CD31+ cells per mm^2]	Number of vessels (vessels; fluoxetine P.O, 6 weeks, Flk1GFP/+ mouse) [vessels per mm^2]	Myogenine positive cells 4 days post-plating (satellite cells [1]; 20% plasma from fluoxetine treated C57Bl/6 mice)	Division rate (satellite cells [1]; [3]) [h]	First satellite cells division, time post-plating (satellite cells [1]; [3]) [h]	Pax7 positive cells 4 days post-plating (satellite cells [1]; plasma from fluoxetine treated animals) [%]	Reserve cells (quiescent Pax7 positive cells) 14 days post-plating (satellite cells [1]) [%]	Myogenin (MyoG) expression increase (satellite cells [1]; plasma from fluoxetine-treated mice vs placebo) [times increase]	MyoD (activation marker) expression between conditions (satellite cells [1]; plasma from fluoxetine-treated mice vs placebo vs GR127935)	Number of SC by histological count (satellite cells [2]; fluoxetine 18 mg/kg, tibialis anterior, TgPax7nGFP mouse) [SC per mm^2]	Number of SC (satellite cells [2]; fluoxetine P.O 6 weeks and PBS in osmotic pump) [SC per TA]
COc1ccc(NC(=O)c2ccc(-c3ccc(-c4noc(C)n4)cc3C)cc2)cc1N1CCN(C)CC1 [GR127935]	1028±173	35.25	4.5	lost	lost	4674±1414														
CNCCC(Oc1ccc(C(F)(F)F)cc1)c1ccccc1 (centres unmarked) [fluoxetine]							1103±110.2	1384±175.3	1949±576	2260±361	1256±62.2	34.75±6.3 % of total plated cells	8.7 ± 0.7	26.45	24	9.4	3	did differ at any time investigated	16.3±5.4	7283±2325

Source: patent US10493046B2, “5-hydroxytryptamine 1B receptor-stimulating agent for use as a promoter of satellite cells self-renewal and/or differentiation” (INSTITUT PASTEUR, priority 2015, dated 2019)
